From patent publication US9227971B2, “Pyrazolo[1,5-a]pyrimidine compounds as mTOR inhibitors” (Merck Sharp & Dohme Corp., priority 2010, dated 2016)
pIC50: −log10 of the molar value. Read-outs that look alike come from different tables or passages of the source.

How the values were obtained:
[1] = test system: phosphorylated AKT Ser473 (pAKT S473), mTORC2 activity, PC3 cells; experiment: mTOR target engagement assay, immunofluorescent cell-based, pAKT S473 readout (mTORC2 activity); settings: Homo sapiens
Outline: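 After blocking, cells were stained overnight at 4 °C with anti-pAKT S473 antibody, then a fluorescent secondary; inhibition was read as reduced fluorescence intensity.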

[2] = test system: phosphorylated 4E-BP1 Thr37/46 (p4E-BP1 Thr37/46), mTORC1 activity, PC3 cells; experiment: mTOR target engagement assay, immunofluorescent cell-based, p4E-BP1 Thr37/46 readout (mTORC1 activity); settings: Homo sapiens, read-out: p4E-BP1 Thr37/46 IC50
Outline: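 Cell-based immunofluorescence in PC3 cells: serially diluted compounds (0.25% DMSO, 5% FBS) applied for ninety minutes at 37° C before fixation and overnight 4° C staining of p4E-BP1 Thr37/46. Untreated DMSO wells set maximal phosphorylation; IC50 obtained by logistic fitting.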

[3] = PC-3, PC3 cells, compound treatment ninety minutes at 37° C.

Structure (SMILES)	pIC50 [1, 3]	pIC50 [2, 3]	other results
CONC(=O)N1C2CC[C@@H]1C[C@@H](c1nc3c(-c4ccc(-c5ccccc5)nc4)cnn3c(N)c1S(C)(=O)=O)C2 [Compound 3.171, (1R,3s,5S)-3-(7-amino-6-(methylsulfonyl)-3-(6-phenylpyridin-3-yl)pyrazolo[1,5-a]pyrimidin-5-yl)-N-methoxy-8-azabicyclo[3.2.1]octane-8-carboxamide]	–	–	pIC50 ([1]; PC-3, Table 3-1, PC3 cells): 6.00 to 7.00; pIC50 ([2]; PC-3, Table 3-1, PC3 cells): 6.00 to 7.00
CC(=O)c1c([C@H]2C[C@H]3CC[C@@H](C2)N3C(=O)CO)nc2c(-c3ccc(-c4ccccc4)nc3)cnn2c1N [Compound 1.1.9, 1-((1R,3r,5S)-3-(6-acetyl-7-amino-3-(6-phenylpyridin-3-yl)pyrazolo[1,5-a]pyrimidin-5-yl)-8-azabicyclo[3.2.1]octan-8-yl)-2-hydroxyethanone]	6.00 to 7.00	6.00 to 7.00	–
CC(=O)c1c([C@@H]2C[C@H]3CC[C@@H](C2)N3C(=O)CO)nc2c(-c3ccc(-c4ncc[nH]4)c(F)c3)cnn2c1N [Compound 6.40, 1-((1R,3s,5S)-3-(6-acetyl-7-amino-3-(3-fluoro-4-(1H-imidazol-2-yl)phenyl)pyrazolo[1,5-a]pyrimidin-5-yl)-8-azabicyclo[3.2.1]octan-8-yl)-2-hydroxyethanone]	–	–	pIC50 ([1]; PC-3, Table 6-1, PC3 cells): 7.00 to 9.00; pIC50 ([2]; PC-3, Table 6-1, PC3 cells): 7.00 to 9.00
CS(=O)(=O)c1c([C@@H]2C[C@H]3CC[C@@H](C2)N3C(=O)c2nnc[nH]2)nc2c(-c3ccc(C4(O)CCC4)nc3)cnn2c1N [Compound 7.41, ((1R,3s,5S)-3-(7-amino-3-(6-(1-hydroxycyclobutyl)pyridin-3-yl)-6-(methylsulfonyl)pyrazolo [1,5-a]pyrimidin-5-yl)-8-azabicyclo[3.2.1]octan-8-yl)(4H-1,2,4-triazol-3-yl)methanone]	–	–	pIC50 ([1]; PC-3, Table 7-8, PC3 cells): 7.00 to 9.00; pIC50 ([2]; PC-3, Table 7-8, PC3 cells): 7.00 to 9.00
CC(=O)c1c([C@@H]2C[C@H]3CC[C@@H](C2)N3C(=O)c2nnc[nH]2)nc2c(-c3ccc(-c4ccn(CF)n4)nc3)cnn2c1N [Compound 1.1.86, 1-(5-((1R,3s,5S)-8-(4H-1,2,4-triazole-3-carbonyl)-8-azabicyclo[3.2.1]octan-3-yl)-7-amino-3-(6-(1-(fluoromethyl)-1H-pyrazol-3-yl)pyridin-3-yl)pyrazolo[1,5-a]pyrimidin-6-yl)ethanone]	7.00 to 9.00	7.00 to 9.00	–
COc1cc(F)c(-c2ccc(-c3cnn4c(N)c(C(C)=O)c([C@@H]5C[C@H]6CC[C@@H](C5)N6C(=O)c5nnc[nH]5)nc34)cn2)cc1F [Compound 1.1.72, 1-(5-((1R,3s,5S)-8-(4H-1,2,4-triazole-3-carbonyl)-8-azabicyclo[3.2.1]octan-3-yl)-7-amino-3-(6-(2,5-difluoro-4-methoxyphenyl)pyridin-3-yl)pyrazolo[1,5-a]pyrimidin-6-yl)ethanone]	7.00 to 9.00	7.00 to 9.00	–
Cc1nnc(C(=O)N2[C@@H]3CC[C@H]2C[C@H](c2nc4c(-c5ccc(-c6ccccc6)nc5)cnn4c(N)c2C2CC2)C3)[nH]1 [Compound 4.2, ((1R,3a,5S)-3-(7-amino-6-cyclopropyl-3-(6-phenylpyridin-3-yl)pyrazolo[1,5-a]pyrimidin-5-yl)-8-azabicyclo[3.2.1]octan-8-yl)(5-methyl-4H-1,2,4-triazol-3-yl)methanone]	7.00 to 9.00	7.00 to 9.00	–
CS(=O)(=O)c1c([C@@H]2C[C@H]3CC[C@@H](C2)N3C(=O)c2cc(N)n[nH]2)nc2c(-c3ccc(-c4ccccc4)nc3)cnn2c1N [Compound 3.75, (3-amino-1H-pyrazol-5-yl)((1R,3s,5S)-3-(7-amino-6-(methylsulfonyl)-3-(6-phenylpyridin-3-yl)pyrazolo[1,5-a]pyrimidin-5-yl)-8-azabicyclo[3.2.1]octan-8-yl)methanone]	–	–	pIC50 ([1]; PC-3, Table 3-1, PC3 cells): 7.00 to 9.00; pIC50 ([2]; PC-3, Table 3-1, PC3 cells): 7.00 to 9.00
CNC(=O)N1[C@@H]2CC[C@H]1C[C@H](c1nc3c(-c4ccc(-c5ccccc5)nc4)cnn3c(N)c1C1CC1)C2 [Compound 4.4, (1R,3a,5S)-3-(7-amino-6-cyclopropyl-3-(6-phenylpyridin-3-yl)pyrazolo[1,5-a]pyrimidin-5-yl)-N-methyl-8-azabicyclo[3.2.1]octane-8-carboxamide]	7.00 to 9.00	6.00 to 7.00	–
CC(=O)c1c([C@@H]2C[C@H]3CC[C@@H](C2)N3C(=O)c2cc[nH]n2)nc2c(-c3ccc(C(C)(C)O)nc3)cnn2c1N [Compound 7.11, 1-(5-((1R,3s,5S)-8-(1H-pyrazole-3-carbonyl)-8-azabicyclo[3.2.1]octan-3-yl)-7-amino-3-(6-(2-hydroxypropan-2-yl)pyridin-3-yl)pyrazolo[1,5-a]pyrimidin-6-yl)ethanone]	7.00 to 9.00	6.00 to 7.00	–
CS(=O)(=O)c1c([C@@H]2C[C@H]3CC[C@@H](C2)N3C(=O)CO)nc2c(-c3cnc(-c4ccccc4)c(O)c3)cnn2c1N [Compound 3.23, 1-((1R,3s,5S)-3-(7-amino-3-(5-hydroxy-6-phenylpyridin-3-yl)-6-(methylsulfonyl)pyrazolo[1,5-a]pyrimidin-5-yl)-8-azabicyclo[3.2.1]octan-8-yl)-2-hydroxyethanone]	–	–	pIC50 ([1]; PC-3, Table 3-1, PC3 cells): 5.00 to 6.00; pIC50 ([2]; PC-3, Table 3-1, PC3 cells): 5.00 to 6.00
Nc1cc([C@@H]2C[C@H]3CC[C@@H](C2)N3C(=O)c2ncn[nH]2)nc2c(-c3ccc(CO)nc3)cnn12 [Compound 7.97, ((1R,3s,5S)-3-(7-amino-3-(6-(hydroxymethyl)pyridin-3-yl)pyrazolo[1,5-a]pyrimidin-5-yl)-8-azabicyclo[3.2.1]octan-8-yl)(1H-1,2,4-triazol-5-yl)methanone]	–	–	pIC50 ([1]; PC-3, PC3 cells): < 5.00; pIC50 ([2]; PC-3, PC3 cells): 5.00 to 6.00
CC(=O)c1c([C@H]2CC3CC[C@H](C2)N3C(=O)c2nnc[nH]2)nc2c(-c3cnc4c(c3)OCCC4O)cnn2c1N (stereo partly drawn) [Compound 7.63, 1-(5-((1R,3s,5S)-8-(4H-1,2,4-triazole-3-carbonyl)-8-azabicyclo[3.2.1]octan-3-yl)-7-amino-3-(4-hydroxy-3,4-dihydro-2H-pyrano[3,2-b]pyridin-7-yl)pyrazolo[1,5-a]pyrimidin-6-yl)ethanone]	–	–	pIC50 ([1]; PC-3, PC3 cells): 6.00 to 7.00; pIC50 ([2]; PC-3, PC3 cells): 7.00 to 9.00
CS(=O)(=O)c1c([C@@H]2C[C@H]3CC[C@@H](C2)N3C(N)=O)nc2c(-c3ccc(-c4ccccc4)nc3)cnn2c1N [Compound 3.10, (1R,3s,5S)-3-(7-amino-6-(methylsulfonyl)-3-(6-phenylpyridin-3-yl)pyrazolo[1,5-a]pyrimidin-5-yl)-8-azabicyclo[3.2.1]octane-8-carboxamide]	–	–	pIC50 ([1]; PC-3, Table 3-1, PC3 cells): 7.00 to 9.00; pIC50 ([2]; PC-3, Table 3-1, PC3 cells): 7.00 to 9.00
[2H]C([2H])([2H])Oc1ccc(-c2ccc(-c3cnn4c(N)c(C(C)=O)c([C@@H]5C[C@H]6CC[C@@H](C5)N6C(=O)CO)nc34)cn2)cc1 [Compound 1.1.78, 1-((1R,3s,5S)-3-(6-acetyl-7-amino-3-(6-(4-methoxy-(D3)-phenyl)pyridin-3-yl)pyrazolo[1,5-a]pyrimidin-5-yl)-8-azabicyclo[3.2.1]octan-8-yl)-2-hydroxyethanone]	7.00 to 9.00	7.00 to 9.00	–
CC(=O)c1c([C@@H]2C[C@H]3CC[C@@H](C2)N3C(=O)c2nnc[nH]2)nc2c(-c3ccc(-c4ccncc4)nc3)cnn2c1N [Compound 1.1.76, 1-(3-(2,4′-bipyridin-5-yl)-5-((1R,3s,5S)-8-(4H-1,2,4-triazole-3-carbonyl)-8-azabicyclo[3.2.1]octan-3-yl)-7-aminopyrazolo[1,5-a]pyrimidin-6-yl)ethanone]	6.00 to 7.00	6.00 to 7.00	–
